Here are results for 41 compounds from ChEMBL document CHEMBL1136253 (Bioorg Med Chem Lett, 2003).

pIC50, pKi: −log10 of the molar value. Some results are limits rather than exact numbers.

One assay concerns the target T1, Corticotropin-releasing factor receptor 1 (Homo sapiens, UniProt P34998).
T1 sequence (P34998 whole entry): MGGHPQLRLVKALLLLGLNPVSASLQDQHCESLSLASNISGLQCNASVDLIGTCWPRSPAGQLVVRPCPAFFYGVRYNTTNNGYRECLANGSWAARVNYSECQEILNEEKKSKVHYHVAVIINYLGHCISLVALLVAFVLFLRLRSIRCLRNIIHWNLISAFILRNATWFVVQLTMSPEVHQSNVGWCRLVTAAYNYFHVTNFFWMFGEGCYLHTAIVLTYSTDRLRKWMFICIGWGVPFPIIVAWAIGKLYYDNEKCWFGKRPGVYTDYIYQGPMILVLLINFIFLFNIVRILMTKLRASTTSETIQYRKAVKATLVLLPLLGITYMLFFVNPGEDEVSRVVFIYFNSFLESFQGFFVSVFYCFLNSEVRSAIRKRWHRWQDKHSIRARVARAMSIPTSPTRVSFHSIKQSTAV
The assay is described as follows: Inhibition of (Corticotropin-Releasing Factor Receptor) CRF-stimulated cAMP production. In kind it is functional. (Changes in cAMP serve as a functional read-out for many G protein-coupled receptors.)
Regarding `CCCN(CC1CC1)c1cc(C)nc2c(-c3ccc(Cl)cc3Cl)nn(C)c12`, the pIC50 is 7.80.

A further assay deals with T1, Corticotropin-releasing factor receptor 1. The assay is described as follows: Binding affinity towards Corticotropin releasing factor receptor 1 was measured through displacement of [125I]sauvagine expressed in HEK293 cells. In kind it is cell-based. A general note: In a radioligand displacement assay an active substance lowers the binding of a labelled ligand.
For the compound `CCCN(CC)c1cc(C)nc2c(-c3ccc(Cl)cc3Cl)nn(C)c12`, the pKi was 8.39.

With `CCCN(C)c1cc(C)nc2c(-c3ccc(Cl)cc3Cl)nn(C)c12`, the pKi was 7.62.

`CCCCN(CCCC)c1cc(C)nc2c(-c3ccc(C)cc3Cl)nn(C)c12` had a pKi of 8.55.

Compound `CCCCCN(CC)c1cc(C)nc2c(-c3ccc(Cl)cc3Cl)nn(C)c12` had a pKi of 8.89.

In the case of `CCCCN(CC1CCCO1)c1cc(C)nc2c(-c3ccc(Cl)cc3Cl)nn(C)c12` (stereo unspecified), the pKi was 7.95.

With `CCCCCN(CCOC)c1cc(C)nc2c(-c3ccc(Cl)cc3Cl)nn(C)c12`, the negative logarithm of the Ki (pKi) is 8.17.

Consider `CCCCN(CC1CC1)c1cc(C)nc2c(-c3ccc(Cl)cc3Cl)nn(C)c12`, for which the pKi is 8.89.

The compound `CCCN(Cc1ccc(O)cc1)c1cc(C)nc2c(-c3ccc(Cl)cc3Cl)nn(C)c12` showed a pKi of 7.89.

On to `CCN(CC1CC1)c1cc(C)nc2c(-c3ccc(Cl)cc3Cl)nn(C)c12`, for which the pKi is 8.36.

Take `CCCCN(CCCC)c1cc(C)nc2c(-c3ccc(OC)cc3Cl)nn(C)c12`: the pKi is 8.32.

Take `COCCN(C)c1cc(C)nc2c(-c3ccc(Cl)cc3Cl)nn(C)c12`: the pKi was 7.49.

`CCCCCN(CCC)c1cc(C)nc2c(-c3ccc(Cl)cc3Cl)nn(C)c12` had a pKi of 8.92.

`CCCCCN(CCCC)c1cc(C)nc2c(-c3ccc(Cl)cc3Cl)nn(C)c12` gave a negative logarithm of the Ki (pKi) of 9.05.

Regarding `CCCCN(Cc1ccncc1)c1cc(C)nc2c(-c3ccc(Cl)cc3Cl)nn(C)c12`, the pKi is 7.17.

Compound `CCCCN(CC1CCCN1C)c1cc(C)nc2c(-c3ccc(Cl)cc3Cl)nn(C)c12` (stereo unspecified) gave a negative-log Ki (pKi) of 6.42.

In turn, `CCCN(CCCOC)c1cc(C)nc2c(-c3ccc(Cl)cc3Cl)nn(C)c12` showed a negative-log Ki (pKi) of 8.01.

Compound `CCCC(CO)Nc1cc(C)nc2c(-c3ccc(Cl)cc3Cl)nn(C)c12` (stereo unspecified) showed a pKi of 7.21.

`CCCCN(CCCOC)c1cc(C)nc2c(-c3ccc(Cl)cc3Cl)nn(C)c12` had a pKi of 7.74.

As to `CCCCCCN(CCOC)c1cc(C)nc2c(-c3ccc(Cl)cc3Cl)nn(C)c12`, the pKi is 8.40.

The compound `CCCCCN(CC1CC1)c1cc(C)nc2c(-c3ccc(Cl)cc3Cl)nn(C)c12` had a pKi of 8.82.

On to `CCN(CCOC)c1cc(C)nc2c(-c3ccc(Cl)cc3Cl)nn(C)c12`, for which the pKi was 8.49.

The compound `CCN(CCCOC)c1cc(C)nc2c(-c3ccc(Cl)cc3Cl)nn(C)c12` had a pKi of 7.90.

In the case of `CCCCN(CCOC)c1cc(C)nc2c(-c3ccc(Cl)cc3Cl)nn(C)c12`, the pKi is 7.98.

`CCCN(CCO)c1cc(C)nc2c(-c3ccc(Cl)cc3Cl)nn(C)c12`: the pKi was 8.36.

The compound `COCCN(CCOC)c1cc(C)nc2c(-c3ccc(Cl)cc3Cl)nn(C)c12` had a pKi of 8.09.

In turn, `CCCCN(c1cc(C)nc2c(-c3ccc(Cl)cc3Cl)nn(C)c12)C(CC)CC` gave a pKi of 8.15.

As to `CCCCN(CCCC)c1cc(C)nc2c(-c3c(C)cc(C)cc3C)nn(C)c12`, the pKi was 8.29.

In the case of `Cc1cc(NCc2ccc(O)cc2)c2c(n1)c(-c1ccc(Cl)cc1Cl)nn2C`, the pKi is less than 5.00.

For the compound `COCCN(CC(C)C)c1cc(C)nc2c(-c3ccc(Cl)cc3Cl)nn(C)c12`, the pKi was 7.98.

Compound `CCCCNc1cc(C)nc2c(-c3ccc(Cl)cc3Cl)nn(C)c12` gave a pKi of 6.77.

The compound `CCCN(CCOC)c1cc(C)nc2c(-c3ccc(Cl)cc3Cl)nn(C)c12` showed a pKi of 8.29.

Compound `CCCCN(CCSC)c1cc(C)nc2c(-c3ccc(Cl)cc3Cl)nn(C)c12` showed a negative logarithm of the Ki (pKi) of 8.85.

Turning to `CCCCCCN(CC1CC1)c1cc(C)nc2c(-c3ccc(Cl)cc3Cl)nn(C)c12`, the pKi was 9.00.

`COCCN(c1cc(C)nc2c(-c3ccc(Cl)cc3Cl)nn(C)c12)C(C)C` showed a pKi of 8.01.

Take `Cc1cc(N(CC(C)C)CC2CC2)c2c(n1)c(-c1ccc(Cl)cc1Cl)nn2C`: the pKi is 8.43.

For the compound `CCCCN(CCc1ccncc1)c1cc(C)nc2c(-c3ccc(Cl)cc3Cl)nn(C)c12`, the pKi was 7.47.

As to `CCCCN(CCCC)c1cc(C)nc2c(-c3ccc(Cl)cc3)nn(C)c12`, the pKi was 6.47.

`CCCCN(CCc1ccccn1)c1cc(C)nc2c(-c3ccc(Cl)cc3Cl)nn(C)c12` gave a pKi of 7.89.

As for `CCCCN(CCCC)c1cc(C)nc2c(-c3c(C)cc(C)cc3Cl)nn(C)c12`, the negative-log Ki (pKi) is 8.68.

The target is the same in a further assay. The assay is described as follows: Inhibition of Corticotropin releasing factor receptor 1-stimulated cAMP production. In kind it is functional.
`CCCCN(CC1CC1)c1cc(C)nc2c(-c3ccc(Cl)cc3Cl)nn(C)c12` showed a pIC50 of 8.52.

The compound `CCCCN(CCCC)c1cc(C)nc2c(-c3ccc(Cl)cc3Cl)nn(C)c12` gave a pIC50 of 8.30.

Take `CCN(CCOC)c1cc(C)nc2c(-c3ccc(Cl)cc3Cl)nn(C)c12`: the pIC50 is 7.82.

`CCCN(CCO)c1cc(C)nc2c(-c3ccc(Cl)cc3Cl)nn(C)c12` gave a pIC50 of 7.74.

`COCCN(CCOC)c1cc(C)nc2c(-c3ccc(Cl)cc3Cl)nn(C)c12`: the pIC50 was 7.42.

As for `CCCN(CCOC)c1cc(C)nc2c(-c3ccc(Cl)cc3Cl)nn(C)c12`, the pIC50 is 7.44.

The pIC50 is the negative decadic logarithm of the IC50, by convention in mol/L. High values mean a small IC50, low ones a large IC50. What is called pKi is the Ki on a negative log10 scale, so that one unit is a factor of ten. Higher therefore signals a low Ki.
